This passage reports IC50 results from patent publication US6362165B1, “Hydroxyphenyl derivatives with HIV integrase inhibitory properties” (Pharmacor Inc., priority 1999, dated 2002).

One assay deals with T1, HIV-1 integrase (Human immunodeficiency virus type 1 group M subtype B, UniProt P04585). Briefly: HIV-1 integrase inhibition assay (based on procedure of Hazuda et al.). It counts as biochemical. Particulars: Table 3; Nα-caffeoyl derivative of the root amino acid, general formula I; read-out: Anti-integrase activity (IC50) Nα-Caffeoyl derivative. The text has this:
For the purposes of Table 3 the HIV-1 integrase inhibition assay was based on a known procedure (Hazuda, D. J. et al., Nucleic Acids Res. 22, 1121-1122 (1994)).
Take `O=C(C=Cc1ccc(O)c(O)c1)NC(CC(=O)NCCc1ccc(O)c(O)c1)C(=O)OCc1ccccc1` [Example 52, Nα-caffeoyl-Nγ-(3-hydroxytyramine)-L-aspartic acid benzyl ester]: the 50% inhibitory concentration (IC50) came to 2.2 µM.
Regarding `O=C(/C=C/c1ccc(O)c(O)c1)N[C@@H](Cc1ccc(O)c(O)c1)C(=O)NCCc1ccc(O)c(O)c1` [Example 54, N-(N′-caffeoyl-L-3,4-dihydroxyphenylalanyl)dopamine], the IC50 was determined as 0.62 µM.
On to `O=C(/C=C/c1ccc(O)c(O)c1)N[C@@H](Cc1ccc(O)c(O)c1)C(=O)NCc1ccc(O)c(O)c1` [Example 55, N-(N′-caffeoyl-L-3,4-dihydroxyphenylalanyl)-3,4-dihydroxybenzylamine], for which the 50% inhibitory concentration (IC50) was found to be 0.38 µM.
Regarding `O=C(/C=C/c1ccc(O)c(O)c1)N[C@@H](CO)C(=O)NCCc1ccc(O)c(O)c1` [Example 59, N-(N′-caffeoyl-L-seryl)dopamine], the half-maximal inhibitory concentration (IC50) came to 0.14 µM.
Regarding `O=C(C=Cc1ccc(O)c(O)c1)NC(CCC(=O)NCCc1ccc(O)c(O)c1)C(=O)NCCc1ccc(O)c(O)c1` [Example 60, N-[N′-caffeoyl-Nα-(3-hydroxytyramine)-L-glutamyl]dopamine], the half-inhibitory concentration (IC50) was 0.105 µM.
As to `O=C(/C=C/c1ccc(O)c(O)c1)N[C@@H](CC(=O)OCc1ccccc1)C(=O)NCCc1ccc(O)c(O)c1` [Example 61, N-(N′-caffeoyl-Oγ-benzyl-L-aspartyl)dopamine], the IC50 worked out at 3.5 µM.
The same measure, in the same setting: under `O=C(O)C[C@H](NC(=O)/C=C/c1ccc(O)c(O)c1)C(=O)NCCc1ccc(O)c(O)c1` [Example 62, N-(N′-caffeoyl-L-aspartyl)dopamine] stands 3.5 µM; under `O=C(/C=C/c1ccc(O)c(O)c1)N[C@@H](Cc1ccc(O)cc1)C(=O)NCc1ccc(O)c(O)c1` [Example 64, N-(N′-caffeoyl-L-tyrosyl)-3,4-dihydroxybenzylamine], 3 µM; under “N-(N′-caffeoyl-L-tryptophanyl)dopamine [Example 53]”, 1.5 µM.

Still in this assay, the particulars now being: Table 3; other Nα-3,4-dihydroxyphenyl derivative of the root amino acid, general formula I; read-out: Anti-integrase activity (IC50) Other Nα-3,4-dihydroxyphenyl derivative.
For the compound `O=C(N[C@@H](Cc1ccc(O)cc1)C(=O)NCc1ccc(O)c(O)c1)c1ccc(O)c(O)c1` [Example 56, N-[N′-(3′,4′-dihydroxybenzoyl)-L-tyrosyl]-3,4-dihydroxybenzylamine], the half-inhibitory concentration (IC50) was determined as 0.78 µM.
On the same count and under the same terms, the result for `O=C(Cc1ccc(O)c(O)c1)N[C@@H](Cc1ccc(O)c(O)c1)C(=O)NCCc1ccc(O)c(O)c1` [Example 57, N-[N′-(3′,4′-dihydroxyphenylacetyl)-L-3,4-dihydroxyphenylalanyl]dopamine] reads 0.106 µM; that for `O=C(N[C@@H](CS)C(=O)NCCc1ccc(O)c(O)c1)c1ccc(O)c(O)c1` [Example 58, N-[N′-(3′,4′-dihydroxybenzoyl)-L-cysteinyl]dopamine], 0.21 µM.
As to `O=C(CC[C@H](NC(=O)c1ccc(O)c(O)c1)C(=O)O)NCCc1ccc(O)c(O)c1` [Example 63, Nα-(3,4-dihydroxybenzoyl)-Nδ-(3-hydroxytyramine) L-glutamic acid], the IC50 came out at 2.8 µM.

A further assay concerns the target T1, HIV-1 integrase. As to the kind of experiment: HIV-1 integrase inhibition assay (procedure of Burke et al.; radiolabeled duplex substrate, U5 end of HIV LTR). It counts as biochemical. Particulars: Table 1; 3,4-dihydroxy derivative of the root amino acid, formula Ic; read-out: Anti-integrase activity (IC50) 3,4-dihydroxy derivative. The procedure: For the purposes of Table 1 (and Table 2) the HIV-1 integrase inhibition assay was carried out following a known procedure (Burke, Jr. T. R. et al., J. Med. Chem. 38, 4171-4178 (1995)). A suitable radiolabeled duplex substrate corresponding to the U5 end of the HIV LTR was used.
Consider `O=C(NC(Cc1ccc(O)c(F)c1)C(=O)NCCc1ccc(O)c(O)c1)c1ccc(O)c(O)c1` (racemic) [Example 48, N-[N′-(3′,4′-dihydroxybenzoyl)-DL-3-fluorotyrosinyl]-dopamine], for which the IC50 is 1.4 µM.
On to `O=C(NC(Cc1cccc(O)c1)C(=O)NCCc1ccc(O)c(O)c1)c1ccc(O)c(O)c1` (racemic) [Example 50, N-[N′-(3′,4′-dihydroxybenzoyl)-DL-m-tyrosyl]-dopamine], for which the IC50 was found to be 1.3 µM.
On the same count and under the same terms, the result for `O=C(N[C@H](Cc1ccc(O)cc1)C(=O)NCCc1ccc(O)c(O)c1)c1ccc(O)c(O)c1` [Example 10, N-[N′-(3′,4′-dihydroxybenzoyl)-D-tyrosyl]-dopamine] reads 67 µM; that for `O=C(N[C@@H](Cc1ccc(O)cc1)C(=O)NCCc1ccc(O)c(O)c1)c1ccc(O)c(O)c1` [Example 12, N-[N′-(3′,4′-dihydroxybenzoyl)-L-tyrosyl]-dopamine], 8 µM; that for `O=C(N[C@@H](Cc1ccccc1)C(=O)NCCc1ccc(O)c(O)c1)c1ccc(O)c(O)c1` [Example 14, N-[N′-(3′,4′-dihydroxybenzoyl)-L-phenylalanyl]-dopamine], 45 µM.
In the case of `O=C(N[C@@H](Cc1ccc(O)c(O)c1)C(=O)NCCc1ccc(O)c(O)c1)c1ccc(O)c(O)c1` [Example 16, N-[N′-(3′,4′-dihydroxybenzoyl)-L-3,4-dihydroxy-phenylalanyl]-dopamine], the IC50 came out at 8 µM.
The same measure, in the same setting: the result for `C[C@H](NC(=O)c1ccc(O)c(O)c1)C(=O)NCCc1ccc(O)c(O)c1` [Example 20, N-[N′-(3′, 4′-dihydroxybenzoyl)-L-alanyl]-dopamine] reads 71 µM.
For `O=C(CC[C@H](NC(=O)c1ccc(O)c(O)c1)C(=O)NCCc1ccc(O)c(O)c1)NCCc1ccc(O)c(O)c1` [Example 22, N-[′-(3′,4′-dihydroxybenzoyl)-δ-(3-hydroxytyramine)-L-glutamyl]-dopamine], the half-maximal inhibitory concentration (IC50) came out at 11 µM.
On to `O=C(CC[C@H](NC(=O)c1ccc(O)c(O)c1)C(=O)NCCc1ccc(O)c(O)c1)OCc1ccccc1` [Example 23, N-[′-(3′,4′-dihydroxybenzoyl)-δ-benzyloxy-L-glutamyl]-dopamine], for which the half-maximal inhibitory concentration (IC50) was found to be 26 µM.
Regarding `CC(C)C[C@H](NC(=O)c1ccc(O)c(O)c1)C(=O)NCCc1ccc(O)c(O)c1` [Example 26, N-[N′-(3′,4′-dihydroxybenzoyl)-L-leucyl]-dopamine], the IC50 was determined as 45 µM.
For the compound `O=C(NCCc1ccc(O)c(O)c1)[C@@H]1CCCN1C(=O)c1ccc(O)c(O)c1` [Example 28, N-[N′-(3′,4′-dihydroxybenzoyl)-L-prolyl]-dopamine], the half-maximal inhibitory concentration (IC50) came out at 80 µM.
Still for that read-out and setting: the result for `O=C(N[C@@H](Cc1c[nH]c2ccccc12)C(=O)NCCc1ccc(O)c(O)c1)c1ccc(O)c(O)c1` [Example 30, N-[N′-(3′,4′-dihydroxybenzoyl)-L-tryptophyl]-dopamine] reads 17 µM; that for `O=C(N[C@@H](Cc1c[nH]cn1)C(=O)NCCc1ccc(O)c(O)c1)c1ccc(O)c(O)c1` [Example 33], 0.1 µM.
For `O=C(CC[C@H](NC(=O)c1ccc(O)c(O)c1)C(=O)OCc1ccccc1)NCCc1ccc(O)c(O)c1` [Example 49, N-(3,4-dihydroxybenzoyl)-δ-N′-(3′,4′-dihydroxyphenethyl)-L-glutamine α-benzyl ester], the IC50 stood at 2.2 µM.

The assay is the same for the next values; noted with them: Table 1; 4-hydroxy derivative of the root amino acid, formula Ic; read-out: Anti-integrase activity (IC50) 4-hydroxy derivative.
Regarding `O=C(N[C@@H](Cc1ccc(O)cc1)C(=O)NCCc1ccc(O)c(O)c1)c1ccc(O)cc1` [Example 11, N-[N′-(p-hydroxybenzoyl)-L-tyrosyl]-dopamine], the IC50 came out at 88 µM.
Turning to `O=C(N[C@@H](Cc1ccccc1)C(=O)NCCc1ccc(O)c(O)c1)c1ccc(O)cc1` [Example 13, N-[N′-(p-hydroxybenzoyl)-L-phenylalanyl]-dopamine], the IC50 is above 200 µM.
Still for that read-out and setting: under `C[C@H](NC(=O)c1ccc(O)cc1)C(=O)NCCc1ccc(O)c(O)c1` [Example 19, N-[N′-(p-hydroxybenzoyl)-L-alanyl]-dopamine] stands 160 µM; under `O=C(CC[C@H](NC(=O)c1ccc(O)cc1)C(=O)NCCc1ccc(O)c(O)c1)NCCc1ccc(O)c(O)c1` [Example 21, N-[′-(p-hydroxybenzoyl)-6-(3-hydroxytyramine)-L-glutamyl]-dopamine], 64 µM.
Still for that read-out and setting: under `CC(C)C[C@H](NC(=O)c1ccc(O)cc1)C(=O)NCCc1ccc(O)c(O)c1` [Example 25, N-[N′-(p-hydroxybenzoyl)-L-leucyl]-dopamine] stands above 200 µM; under `O=C(NCCc1ccc(O)c(O)c1)[C@@H]1CCCN1C(=O)c1ccc(O)cc1` [Example 27, N-[N′-(p-hydroxybenzoyl)-L-prolyl]-dopamine], above 200 µM; under “N-[N′-(p-hydroxybenzoyl)-L-tryptophanyl]-dopamine [Example 29]”, 245 µM.

The assay is the same for the next values; noted with them: Table 2; dipeptide derivatives of I; read-out: Anti-integrase activity (IC50).
As for `O=C(N[C@@H](Cc1ccc(O)cc1)C(=O)N[C@@H](Cc1ccc(O)cc1)C(=O)O)c1ccc(O)c(O)c1` [Example 36, N-[N′-(3′,4′-dihydroxybenzoyl)-L-tyrosyl]-L-tyrosine], the IC50 came out at 177 µM.
Regarding `O=C(O)CNC(=O)[C@H](Cc1ccc(O)cc1)NC(=O)c1ccc(O)c(O)c1` [Example 37, N-[N′-(3′,4′-dihydroxybenzoyl)-L-tyrosyl]-glycine], the IC50 was above 200 µM.
As for `O=C(CNC(=O)c1ccc(O)c(O)c1)N[C@@H](Cc1ccc(O)cc1)C(=O)O` [Example 39, N-[N′-(3′,4′-dihydroxybenzoyl)-glycyl]-L-tyrosine], the half-inhibitory concentration (IC50) was above 200 µM.
Same read-out and setting: the result for `O=C(C[C@H](NC(=O)[C@H](Cc1ccc(O)cc1)NC(=O)c1ccc(O)c(O)c1)C(=O)NCCc1ccc(O)c(O)c1)OCc1ccccc1` [Example 41, N-[N′-[N″-(3″,4″-dihydroxybenzoyl)-L-tyrosyl]-L-γ-O-benzyl-aspartyl]-dopamine] reads 20 µM; that for `O=C(N[C@@H](Cc1ccc(O)cc1)C(=O)N[C@@H](Cc1ccc(O)cc1)C(=O)NCCc1ccc(O)c(O)c1)c1ccc(O)c(O)c1` [Example 51], 17 µM.

The term IC50 denotes the midpoint of a concentration-inhibition curve.
